Test results as given in article PMC10447287, “Optimisation of Pharmaceutical Cocrystal Dissolution Performance through a Synergistic Precipitation Inhibition” (Pharmaceutical Research, 2023).

Experiments:
[1] = FFA-NIC cocrystal solubility and phase solubility diagrams (PSD); format: physicochemical; conditions: for FFA concentration at eutectic point / Ksp / SAB: 37°C
Experimental: For a 1:1 AB cocrystal without consideration of ionization of each component, its molar solubility SAB is calculated as [21]1 SAB=Ksp=CACB where Ksp is the solubility product of the AB cocrystal, and CA and CB (μmol/mL) are the molar concentrations of A and B where the solution is in equilibrium with the solid residues including cocrystal solids. When the solution is in equilibrium with both the drug and cocrystal solids, it is called the eutectic point where the component concentrations in solution are designated as CA_eut and CB_eut .
In order to determine the FFA-NIC cocrystal solubility, the physical mixtures of the FFA I and NIC solids and a constant 10 mL of the medium (i.e., DDW or PBS pH 4.5 in the absence and presence of a predissolved polymer, i.e., 0.2 mg/mL PVP-VA, 1 mg/mL PEG or 0.2 mg/mL SLP, or a combination, i.e., 0.2 mg/mL PVP-VA + 1 mg/mL PEG, 0.2 mg/mL PVP-VA + 0.2 mg/mL SLP), representing 10% w/w and 90% w/w of the total weight of a sample, were used. More than eight different ratios of the FFA I and NIC solids in the physical mixtures (Table S1 in the supporting materials) were prepared and then each of them was transferred into a 20 mL glass vial containing a magnetic stirrer (3 × 20 mm) with 10 mL of the solution prepared above. The samples were placed in the Polar Bear Plus Crystal (Cambridge Reactor Design Ltd, UK) and kept at 37 ± 0.5°C for 24 h. After that, the supernatant of each of the samples was separated from excess solids by centrifugation at 13,000 RPM for 1 min in an MSE Micro Centaur. HPLC was used to determine the concentrations of FFA and NIC. Solid residues obtained from the experiments were dried at room temperature and analysed by PXRD. If the FFA-NIC cocrystal solids were found in the solid residues of a sample ( i ), the molar concentrations of FFA ( CFFA,iexp ) and NIC ( CNIC,iexp ) (μmol/mL) obtained were used to determine the solubility product Ksp,iexp of FFA-NIC cocrystal by2 Ksp,iexp=CFFA,iexp×CNIC,iexp
The optimal solubility product Kspoptimal of FFA-NIC cocrystal is obtained by minimizing the sum square error (SSE) of the optimal value with each of the individual experimental values KSP,iexp .3 Kspoptimal=min∑i=1n(Kspoptimal-ksp,iexp)^2 where n is the total number of vials having the cocrystal solids in the residues.
In this work, the optimal value of Kspopitmal was obtained using the inbuilt “fminbnd” function in MATLAB. If both the FFA-NIC cocrystal and FFA I solids were found in the solid residues of a sample, the measured concentrations of FFA ( CFFAexp ) and NIC ( CNICexp ) were the transition concentrations at the eutectic point.

[2] = Particle size distribution of sieved powders; format: physicochemical; conditions: sieved particles < 250 μm
Experimental: All samples (i.e., FFA, FFA-NIC cocrystal and FFA-TP cocrystal) used in the dissolution tests were slightly ground by a mortar and pestle and sieved by a 60-mesh sieve (below 250 μm) to reduce the influence of particle size on the dissolution rates. The particle size distributions of the test samples were measured using a SYNC Analyzer (MICROTRAC Retsch GmbH, Hann, Germany). The particle size distributions (D10, D50, D90 and mean particle size) of the solid particles were compared. The data were analysed by the Microtrac FLEX software (12.0.0.1).

[3] = DDW with PEG (1 mg/mL) + PVP-VA (0.2 mg/mL)
[4] = DDW with SLP (0.2 mg/mL) + PVP-VA (0.2 mg/mL)
[5] = PBS pH 4.5 with PEG (1 mg/mL) + PVP-VA (0.2 mg/mL)
[6] = PBS pH 4.5 with PVP-VA (0.2 mg/mL)
[7] = PBS pH 4.5 with SLP (0.2 mg/mL)
[8] = PBS pH 4.5 with SLP (0.2 mg/mL) + PVP-VA (0.2 mg/mL)

Ratio of FFA concentration at eutectic point with parent drug ([1]; DDW with PEG (1 mg/mL)): 4.47 | Ratio of FFA concentration at eutectic point with parent drug [1, 3]: 7.27 | Ratio of cocrystal solubility with parent drug [1, 3]: 4382.27 | FFA concentration at eutectic point [1, 3]: 0.26 µmol/mL | Ksp [1, 3]: 156.76 μmol^2/mL^2 | SAB [1, 3]: 12.52 µmol/mL | FFA concentration at eutectic point ([1]; DDW with PEG (1 mg/mL)): 0.16 µmol/mL | Ksp ([1]; DDW with PEG (1 mg/mL)): 136.09 μmol^2/mL^2 | SAB ([1]; DDW with PEG (1 mg/mL)): 11.67 µmol/mL | Ratio of FFA concentration at eutectic point with parent drug ([1]; DDW with PVP-VA (0.2 mg/mL)): 23.20 | Ratio of cocrystal solubility with parent drug ([1]; DDW with PVP-VA (0.2 mg/mL)): 4805.23 | FFA concentration at eutectic point ([1]; DDW with PVP-VA (0.2 mg/mL)): 0.83 µmol/mL | Ksp ([1]; DDW with PVP-VA (0.2 mg/mL)): 171.89 μmol^2/mL^2 | SAB ([1]; DDW with PVP-VA (0.2 mg/mL)): 13.11 µmol/mL | Ratio of FFA concentration at eutectic point with parent drug ([1]; DDW with SLP (0.2 mg/mL)): 4.47 | Ratio of cocrystal solubility with parent drug ([1]; DDW with SLP (0.2 mg/mL)): 3218.49 | Ratio of FFA concentration at eutectic point with parent drug [1, 4]: 31.03 | Ratio of cocrystal solubility with parent drug [1, 4]: 6264.77 | FFA concentration at eutectic point [1, 4]: 1.11 µmol/mL | Ksp [1, 4]: 224.10 μmol^2/mL^2 | SAB [1, 4]: 14.97 µmol/mL | FFA concentration at eutectic point ([1]; DDW with SLP (0.2 mg/mL)): 0.16 µmol/mL | Ratio of FFA concentration at eutectic point with parent drug ([1]; DDW, pure solution): 6.71 | Ratio of cocrystal solubility with parent drug ([1]; DDW, pure solution): 2649.04 | FFA concentration at eutectic point ([1]; DDW, pure solution): 0.24 µmol/mL | Ksp ([1]; DDW, pure solution): 94.76 μmol^2/mL^2 | SAB ([1]; DDW, pure solution): 9.73 µmol/mL | Ratio of FFA concentration at eutectic point with parent drug ([1]; PBS pH 4.5, pure solution): 2.46 | Ratio of cocrystal solubility with parent drug ([1]; PBS pH 4.5, pure solution): 1535.91 | FFA concentration at eutectic point ([1]; PBS pH 4.5, pure solution): 0.16 µmol/mL | Ksp ([1]; PBS pH 4.5, pure solution): 99.78 μmol^2/mL^2 | SAB ([1]; PBS pH 4.5, pure solution): 9.99 µmol/mL | Ratio of FFA concentration at eutectic point with parent drug ([1]; PBS pH 4.5 with PEG (1 mg/mL)): 4.93 | Ratio of cocrystal solubility with parent drug ([1]; PBS pH 4.5 with PEG (1 mg/mL)): 1601.02 | Ratio of FFA concentration at eutectic point with parent drug [1, 5]: 10.16 | Ratio of cocrystal solubility with parent drug [1, 5]: 2171.41 | FFA concentration at eutectic point [1, 5]: 0.66 µmol/mL | Ksp [1, 5]: 141.26 μmol^2/mL^2 | SAB [1, 5]: 11.89 µmol/mL | FFA concentration at eutectic point ([1]; PBS pH 4.5 with PEG (1 mg/mL)): 0.32 µmol/mL | Ksp ([1]; PBS pH 4.5 with PEG (1 mg/mL)): 104.01 μmol^2/mL^2 | SAB ([1]; PBS pH 4.5 with PEG (1 mg/mL)): 10.20 µmol/mL | Ratio of FFA concentration at eutectic point with parent drug [1, 6]: 6.93 | Ratio of cocrystal solubility with parent drug [1, 6]: 2040.80 | FFA concentration at eutectic point [1, 6]: 0.45 µmol/mL | Ksp [1, 6]: 132.58 μmol^2/mL^2 | SAB [1, 6]: 11.51 µmol/mL | Ratio of FFA concentration at eutectic point with parent drug [1, 7]: 2.46 | Ratio of cocrystal solubility with parent drug [1, 7]: 1772.19 | Ratio of FFA concentration at eutectic point with parent drug [1, 8]: 10.16 | Ratio of cocrystal solubility with parent drug [1, 8]: 2443.18 | FFA concentration at eutectic point [1, 8]: 0.66 µmol/mL | Ksp [1, 8]: 158.72 μmol^2/mL^2 | SAB [1, 8]: 12.60 µmol/mL | FFA concentration at eutectic point [1, 7]: 0.16 µmol/mL | potential increase in the FFA solubility based on FFA concentration at eutectic point ([1]; in DDW): 30 fold | potential increase in the FFA solubility based on FFA concentration at eutectic point ([1]; in PBS pH 4.5): tenfold | increase of the FFA solubility achieved by cocrystal (by Eq. 1 cocrystal solubility) ([1]; in some cases, Table III): > 1000 fold | D10 [2]: 6.08 μm | D50 [2]: 13.77 μm | D90 [2]: 33.97 μm | Mean particle size [2]: 17.63 μm
Structure (SMILES): NC(=O)c1cccnc1.O=C(O)c1ccccc1Nc1cccc(C(F)(F)F)c1 [FFA-NIC cocrystal]
